Results: patent publication US11072611B2, “Compounds and pharmaceutical compositions thereof for the treatment of inflammatory disorders” (Galapagos NV, priority 2013, dated 2021)

How the values were obtained:
[1] = system: tobacco smoke induced recruitment of inflammatory cells to the lungs; experiment: Tobacco smoke (TS) model, lungs inflammatory cells recruitment; format: in vivo, female C57BL/6J mice; conditions: TS-exposed mice
Experimental: The aim of this experiment is to evaluate the efficacy and potency of a test compound administered p.o., once or twice daily on days 6 to 11, vs reference compounds, on pulmonary inflammation induced by 11 days of TS-exposure in female C57BL/6J mice, by assessing the effect of a test compound on the tobacco smoke induced recruitment of inflammatory cells to the lungs.
The test compounds are formulated in PEG200/0.5% methylcellulose (25/75, v/v) and are given at a dose volume of 10 mL/kg. Roflumilast and Dexamethasone are included as positive […] control, respectively. Each treatment group consists of 10 mice.
A first group of mice is subjected to daily TS-exposure for 5 consecutive days and sacrificed on the day 6, 24 h after the final TS-exposure.
A second group is exposed to air for 5 consecutive days (sham exposure) and sacrificed on the day 6, 24 h after the final air-exposure.
Compound and reference-treated groups are subjected to daily TS-exposure for 11 consecutive days and sacrificed on the day 12, 24 h after the final TS-exposure. Mice are dosed p.o. on days 6 to 11, twice daily, 1 h prior to and 6 h after each TS-exposure, with either vehicle, or the test compound at 3, 5, 10 or 30 mg/kg. Another group is dosed p.o. on days 6 to 11, once daily, 1 h prior to each TS-exposure, with either vehicle, or the test compound at 10 mg/kg.
An additional group is dosed p.o., once daily, on days 6 to 11, with roflumilast at 5 mg/kg, 1 h prior to each TS-exposure. Dexamethasone is dosed p.o., twice daily, on days 6 to 11, at 0.3 mg/kg, 1 h prior to and 6 h after each TS-exposure.
For each mouse, a BAL is performed using 0.4 mL of PBS. The lavage fluid is centrifuged, the supernatant removed and the resulting cell pellet re-suspended for total cell counts and cytospin slide preparation. […]
The lungs are dissected out and the left lobes are removed, snap-frozen and stored at −80° C. […] Cell data are presented as individual data points for each animal and the mean value calculated for each group. […]
Percentage inhibitions for the cell data are calculated using the formula below: […]

LPA 18:2 [2] = experiment: Rat whole blood (plasma) LPA assay; format: biochemical; conditions: 2 h at 37° C., LPA 18:2 by LC-MS/MS
Experimental: (§1) Whole blood is collected from rats or mouse by exsanguinations on sodium heparin tube, then after centrifugation at 3000 rpm for 15 min at 4° C., plasma is stored at −80° C. Compounds are diluted in DMSO in concentration dependent manner then 0.5 μL are dispensed into 96-well plate placed in ice. Plasma is defrosted on ice then 49.5 μL of plasma are added into the well containing 0.5 μL of compound (1% DMSO final). Plates are covered with a lid in polypropylene and incubated at +37° C., 5% CO2, for 2 h under gentle shaking (except controls which are stored at −20° C.).
(§2) At the end of the incubation, controls are defrosted in ice and transferred in the incubated plates for LC-MS/MS analysis with a non GLP-validated method. For the analysis, plasma proteins from a 10 μL incubated plates are precipitated with an excess of methanol containing the internal standard, LPA 17:0. After centrifugation, the corresponding supernatant is injected on a C18 column. Analytes are eluted out of the column under isocratic conditions. An API5500 QTRAP mass spectrometer (ABSciex™) is used for the detection of LPA 18:2. No calibration curve is prepared for LPA 18:2, however relative quantities are evaluated based on the peak area.

LPA 18:2 [3] = experiment: Human whole blood (plasma) LPA assay; format: biochemical; conditions: 2 h at 37° C., LPA 18:2 by LC-MS/MS
Experimental: as §1, with “Blood is” for “Whole blood is”, “from healthy volunteers who gave informed consent into” for “from rats or mouse by exsanguinations on”, “heparin tubes by venipuncture,” for “heparin tube,”, “then gently inverted several times to prevent clotting. Tubes are centrifuged” for “then after centrifugation”, “4° C. then” for “4° C.,”
as §2

IC50 (LPA 18:2 [2]) [nM]	IC50 (LPA 18:2 [3]) [nM]	SMILES	number of cells recovered in the BALF (macrophage cells, epithelial cells, neutrophils) ([1]; 3 mg/kg twice daily p.o.)	number of cells recovered in the BALF (macrophage cells, epithelial cells, neutrophils) ([1]; 10 mg/kg twice daily p.o.)
		CCc1nc2c(C)cc(N3CCN(CC(=O)N4CC(O)C4)CC3)cn2c1N(C)c1nc(-c2ccc(F)cc2)c(C#N)s1 [Compound 2, 2-((2-ethyl-6-(4-(2-(3-hydroxyazetidin-1-yl)-2-oxoethyl)piperazin-1-yl)-8-methylimidazo[1,2-a]pyridin-3-yl)(methyl)amino)-4-(4-fluorophenyl)thiazole-5-carbonitrile]	significantly inhibited	significantly inhibited
0.01 to 100		CCc1nc2c(F)cc(N3CCN(CC(=O)N4CC(O)C4)CC3)cn2c1N(C)c1nc(-c2ccc(F)cc2)c(C#N)s1 [Compound 12, 2-((2-ethyl-8-fluoro-6-(4-(2-(3-hydroxyazetidin-1-yl)-2-oxoethyl)piperazin-1-yl)imidazo[1,2-a]pyridin-3-yl)(methyl)amino)-4-(4-fluorophenyl)thiazole-5-carbonitrile]		significantly inhibited
	> 1000	CCc1nc2ccc(C3CCN(S(C)(=O)=O)CC3)cn2c1N(C)c1nc(-c2ccc(F)cc2)cs1 [Compound 80, N-(2-ethyl-6-(1-(methylsulfonyl)piperidin-4-yl)imidazo[1,2-a]pyridin-3-yl)-4-(4-fluorophenyl)-N-methylthiazol-2-amine]		
> 1000	> 1000	CCc1nc2ccc(C3CCN(CC(=O)N4CC(O)C4)CC3)cn2c1N(C)c1nc(-c2ccc(F)cc2)cs1 [Compound 110, 2-(4-(2-ethyl-3-((4-(4-fluorophenyl)thiazol-2-yl)(methyl)amino)imidazo[1,2-a]pyridin-6-yl)piperidin-1-yl)-1-(3-hydroxyazetidin-1-yl)ethanone]		
> 1000		CCc1nc2ccc(N3CCN(Cc4ncc[nH]4)CC3)cn2c1N(C)c1nc(-c2ccc(F)cc2)cs1 [Compound 226, N-(6-(4-((1H-imidazol-2-yl)methyl)piperazin-1-yl)-2-ethylimidazo[1,2-a]pyridin-3-yl)-4-(4-fluorophenyl)-N-methylthiazol-2-amine]		
